Patent US10722501B2 (BAYER AKTIENGESELLSCHAFT, priority 2016, dated 2020)

Target: T1, recombinant full-length human prolyl endopeptidase (PREP) (Homo sapiens, UniProt P48147)
T1 construct: To recombinant full-length human prolyl endopeptidase (PREP, R&D-Systems, 4308-SE); purchased R&D-Systems 4308-SE
T1 sequence (P48147 1-710): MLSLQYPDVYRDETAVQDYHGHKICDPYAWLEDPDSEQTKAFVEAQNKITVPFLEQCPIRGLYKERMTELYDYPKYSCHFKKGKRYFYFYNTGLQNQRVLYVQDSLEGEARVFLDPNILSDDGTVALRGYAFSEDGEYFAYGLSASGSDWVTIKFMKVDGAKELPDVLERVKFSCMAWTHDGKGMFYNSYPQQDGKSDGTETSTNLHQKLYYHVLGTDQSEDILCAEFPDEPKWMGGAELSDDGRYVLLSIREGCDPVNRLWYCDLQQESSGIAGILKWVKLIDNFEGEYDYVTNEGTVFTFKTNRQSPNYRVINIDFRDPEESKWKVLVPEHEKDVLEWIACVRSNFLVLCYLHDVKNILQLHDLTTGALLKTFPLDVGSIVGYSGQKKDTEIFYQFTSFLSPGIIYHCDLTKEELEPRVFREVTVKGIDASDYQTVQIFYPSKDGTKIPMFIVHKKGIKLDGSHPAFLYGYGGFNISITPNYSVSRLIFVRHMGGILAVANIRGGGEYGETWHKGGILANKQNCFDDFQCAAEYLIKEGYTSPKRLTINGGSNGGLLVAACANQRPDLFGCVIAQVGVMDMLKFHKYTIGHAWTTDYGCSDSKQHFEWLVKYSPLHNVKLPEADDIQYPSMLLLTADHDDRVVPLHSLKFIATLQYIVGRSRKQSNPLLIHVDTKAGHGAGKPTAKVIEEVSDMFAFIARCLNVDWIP
Experiment: Biochemical human prolyl endopeptidase (PREP) assay with fluorescently labelled substrate
Conditions: substrate Z-Gly-Pro-AMC 50 μM, 32° C., 60 min; some as mean values from multiple independent determinations
Method in brief: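 0.4 nM (final, example) recombinant PREP in pH 7.5 Tris buffer with EDTA, GSH, BSA and Brij-35; compounds at 1 nM to 30 μM. Reaction started with 50 μM Z-Gly-Pro-AMC and followed by fluorescence (ex 360/em 465 nm) at 32° C for 60 min. IC50 interpolated from percent activity based on initial slopes.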

SMILES	IC50 [nM]
Cc1ccc(C(=O)Cn2nc3n(c2=O)[C@H](C(=O)N2CC[C@H](F)C2)CCC3)cc1 [Example 516, (5S)-5-{[(3S)-3-Fluoropyrrolidin-1-yl]carbonyl}-2-[2-(4-methylphenyl)-2-oxoethyl]-5,6,7,8-tetrahydro[1,2,4]triazolo[4,3-a]pyridin-3(2H)-one]	4.2
O=C([C@@H]1CCCc2nn(CCc3ncc(C(F)(F)F)cc3Cl)c(=O)n21)N1CC(F)C1 [Example 518, (5S)-2-{[3-Chloro-5-(trifluoromethyl)pyridin-2-yl]ethyl}-5-[(3-fluoroazetidin-1-yl)carbonyl]-5,6,7,8-tetrahydro[1,2,4]triazolo[4,3-a]pyridin-3(2H)-one]	15
O=C([C@@H]1CCCc2nn(CCc3ccc(F)cc3)c(=O)n21)N1CC(F)C1 [Example 520, (5S)-5-[(3-Fluoroazetidin-1-yl)carbonyl]-2-[2-(4-fluorophenyl)ethyl]-5,6,7,8-tetrahydro[1,2,4]triazolo[4,3-a]pyridin-3(2H)-one]	1.7
COc1ccc(CCn2nc3n(c2=O)[C@H](C(=O)N2C[C@@H](F)[C@@H](F)C2)CCC3)cc1 [Example 522, (5S)-5-{[(3R,4S)-3,4-Difluoropyrrolidin-1-yl]carbonyl}-2-[2-(4-methoxyphenyl)ethyl]-5,6,7,8-tetrahydro[1,2,4]triazolo[4,3-a]pyridin-3(2H)-one]	1.5
COc1ccc(CCn2nc3n(c2=O)[C@H](C(=O)N2CC(F)(F)C2)CCC3)cc1 [Example 523, (5S)-5-[(3,3-Difluoroazetidin-1-yl)carbonyl]-2-[2-(4-methoxyphenyl)ethyl]-5,6,7,8-tetrahydro[1,2,4]triazolo[4,3-a]pyridin-3(2H)-one]	28.5
Cc1ccc(C2(Cn3nc4n(c3=O)[C@H](C(=O)N3CCC(F)(F)C3)CCC4)CC2)cc1 [Example 524, (5S)-5-[(3,3-Difluoropyrrolidin-1-yl)carbonyl]-2-{[1-(4-methylphenyl)cyclopropyl]methyl}-5,6,7,8-tetrahydro[1,2,4]triazolo[4,3-a]pyridin-3(2H)-one]	2.9
Cc1ccc(C2(Cn3nc4n(c3=O)[C@H](C(=O)N3CC[C@H](O)C3)CCC4)CC2)cc1 [Example 525, (5S)-5-{[(3S)-3-Hydroxypyrrolidin-1-yl]carbonyl}-2-{[1-(4-methylphenyl)cyclopropyl]methyl}-5,6,7,8-tetrahydro[1,2,4]triazolo[4,3-a]pyridin-3(2H)-one]	15.2
O=C([C@@H]1CCCc2nn(Cc3ccc(C(F)(F)F)cn3)c(=O)n21)N1CCCC1 [Example 531, (5S)-5-(Pyrrolidin-1-ylcarbonyl)-2-{[5-(trifluoromethyl)pyridin-2-yl]methyl}-5,6,7,8-tetrahydro[1,2,4]triazolo[4,3-a]pyridin-3(2H)-one]	3
COc1ccc(Cn2nc3n(c2=O)[C@H](C(=O)N2CC(F)(F)C2)CCC3)nc1 [Example 532, (5S)-5-[(3,3-Difluoroazetidin-1-yl)carbonyl]-2-[(5-methoxypyridin-2-yl)methyl]-5,6,7,8-tetrahydro[1,2,4]triazolo[4,3-a]pyridin-3(2H)-one]	34
O=C([C@@H]1CCCc2nn(Cc3cncc(C(F)(F)F)c3)c(=O)n21)N1CCCC1 [Example 535, (5S)-5-(Pyrrolidin-1-ylcarbonyl)-2-{[5-(trifluoromethyl)pyridin-3-yl]methyl}-5,6,7,8-tetrahydro[1,2,4]triazolo[4,3-a]pyridin-3(2H)-one]	5.1

The next compounds have a lower IC50 than those just listed; values first:

IC50 [nM]	SMILES
0.365	N#C[C@@H]1CCCN1C(=O)[C@@H]1CCCc2nn(Cc3ccc(C(F)(F)F)nc3)c(=O)n21 [Example 511, (2S)-1-{[(5S)-3-Oxo-2-{[6-(trifluoromethyl)pyridin-3-yl]methyl}-2,3,5,6,7,8-hexahydro[1,2,4]triazolo[4,3-a]pyridin-5-yl]carbonyl}pyrrolidine-2-carbonitrile]
0.15	N#C[C@@H]1CCCN1C(=O)[C@@H]1CCCc2nn(Cc3ccc(Cl)cn3)c(=O)n21 [Example 512, (2S)-1-({(5S)-2-[(5-Chloropyridin-2-yl)methyl]-3-oxo-2,3,5,6,7,8-hexahydro[1,2,4]triazolo[4,3-a]pyridin-5-yl}carbonyl)pyrrolidine-2-carbonitrile]
0.13	N#C[C@@H]1CCCN1C(=O)[C@@H]1CCCc2nn(Cc3ncc(Cl)cc3Cl)c(=O)n21 [Example 513, (2S)-1-({(5S)-2-[(3,5-Dichloropyridin-2-yl)methyl]-3-oxo-2,3,5,6,7,8-hexahydro[1,2,4]triazolo[4,3-a]pyridin-5-yl}carbonyl)pyrrolidine-2-carbonitrile]
0.061	N#C[C@@H]1CCCN1C(=O)[C@@H]1CCCc2nn(Cc3ncc(Cl)cc3F)c(=O)n21 [Example 514, (2S)-1-({(5S)-2-[(5-Chloro-3-fluoropyridin-2-yl)methyl]-3-oxo-2,3,5,6,7,8-hexahydro[1,2,4]triazolo[4,3-a]pyridin-5-yl}carbonyl)pyrrolidine-2-carbonitrile]
0.59	O=C([C@@H]1CCCc2nn(Cc3cncc(C(F)(F)F)c3)c(=O)n21)N1CC[C@H](F)C1 [Example 515, (5S)-5-{[(3S)-3-Fluoropyrrolidin-1-yl]carbonyl}-2-{[5-(trifluoromethyl)pyridin-3-yl]methyl}-5,6,7,8-tetrahydro[1,2,4]triazolo[4,3-a]pyridin-3(2H)-one]
0.95	Cc1ccc(C(F)(F)Cn2nc3n(c2=O)[C@H](C(=O)N2CC[C@H](F)C2)CCC3)cc1 [Example 517, (5S)-2-[2,2-Difluoro-2-(4-methylphenyl)ethyl]-5-{[(3S)-3-fluoropyrrolidin-1-yl]carbonyl}-5,6,7,8-tetrahydro[1,2,4]triazolo[4,3-a]pyridin-3(2H)-one]
1.4	O=C([C@@H]1CCCc2nn(CCc3ccc(F)cc3)c(=O)n21)N1CCC(F)(F)C1 [Example 519, (5S)-5-[(3,3-Difluoropyrrolidin-1-yl)carbonyl]-2-[2-(4-fluorophenyl)ethyl]-5,6,7,8-tetrahydro[1,2,4]triazolo[4,3-a]pyridin-3(2H)-one]
0.44	Cc1ccc(CCn2nc3n(c2=O)[C@H](C(=O)N2CCCC2)CCC3)cc1 [Example 521, (5S)-2-[2-(4-Methylphenyl)ethyl]-5-(pyrrolidin-1-ylcarbonyl)-5,6,7,8-tetrahydro[1,2,4]triazolo[4,3-a]pyridin-3(2H)-one]
0.38	Cc1ccc(C2(Cn3nc4n(c3=O)[C@H](C(=O)N3CC[C@H](F)C3)CCC4)CC2)cc1 [Example 526, (5S)-5-{[(3S)-3-Fluoropyrrolidin-1-yl]carbonyl}-2-{[1-(4-methylphenyl)cyclopropyl]methyl}-5,6,7,8-tetrahydro[1,2,4]triazolo[4,3-a]pyridin-3(2H)-one]
1.2	O=C([C@@H]1CCCc2nn(CC3(c4ccc(C(F)(F)F)cc4)CC3)c(=O)n21)N1CC(F)C1 [Example 527, (5S)-5-[(3-Fluoroazetidin-1-yl)carbonyl]-2-({1-[4-(trifluoromethyl)phenyl]cyclopropyl}methyl)-5,6,7,8-tetrahydro[1,2,4]triazolo[4,3-a]pyridin-3(2H)-one]
0.72	COc1ccc(C2(Cn3nc4n(c3=O)[C@H](C(=O)N3CC[C@H](F)C3)CCC4)CC2)cc1 [Example 528, (5S)-5-{[(3S)-3-Fluoropyrrolidin-1-yl]carbonyl}-2-{[1-(4-methoxyphenyl)cyclopropyl]methyl}-5,6,7,8-tetrahydro[1,2,4]triazolo[4,3-a]pyridin-3(2H)-one]
0.96	COc1ccc(C2(Cn3nc4n(c3=O)[C@H](C(=O)N3CCC(F)(F)C3)CCC4)CC2)cc1 [Example 529, (5S)-5-[(3,3-Difluoropyrrolidin-1-yl)carbonyl]-2-{[1-(4-methoxyphenyl)cyclopropyl]methyl}-5,6,7,8-tetrahydro[1,2,4]triazolo[4,3-a]pyridin-3(2H)-one]
0.22	O=C([C@@H]1CCCc2nn(CC3(c4ccc(F)cc4F)CC3)c(=O)n21)N1CCCC1 [Example 530, (5S)-2-{[1-(2,4-Difluorophenyl)cyclopropyl]methyl}-5-(pyrrolidin-1-ylcarbonyl)-5,6,7,8-tetrahydro[1,2,4]triazolo[4,3-a]pyridin-3(2H)-one]
0.44	O=C([C@@H]1CCCc2nn(Cc3nccc(C(F)(F)F)c3Cl)c(=O)n21)N1CCCC1 [Example 533, (5S)-2-{[3-Chloro-4-(trifluoromethyl)pyridin-2-yl]methyl}-5-(pyrrolidin-1-ylcarbonyl)-5,6,7,8-tetrahydro[1,2,4]triazolo[4,3-a]pyridin-3(2H)-one]
1.23	Cn1nc(Cn2nc3n(c2=O)[C@H](C(=O)N2CC(F)C2)CCC3)c2cccnc21 [Example 534, (5S)-5-[(3-Fluoroazetidin-1-yl)carbonyl]-2-[(1-methyl-1H-pyrazolo[3,4-b]pyridin-3-yl)methyl]-5,6,7,8-tetrahydro[1,2,4]triazolo[4,3-a]pyridin-3(2H)-one]
